According to patent publication US10828305B2 (SHANGHAI PHARMACEUTICALS HOLDING CO., LTD., priority 2016, dated 2020):

Columns and labels:
N87 = assay: Proliferation inhibition assay in vitro, N87 (CellTiter-Glo); type: cell-based; conditions: Homo sapiens; 72 hours; read-out: IC50(nM) cell N87
Description: (§1) Proliferation Inhibition Assay In Vitro of Cell Lines
(§2) 1. Cell culture and inoculation: on the first day of the experiment, normal cultured cells were taken in the exponential growth phase, the cells were dispersed by digesting, then the cell density was adjusted to 8.8×10^4 cells/mL for BT-474 and 6.6×10^4 cells/mL for N87, 90 μl of which were inoculated to each well in a 96-well cell culture plate; after inoculation, the microplate was placed at condition of 37° C., 5% CO2 overnight. 2. Dosing to cells: on the second day of the experiment, the microplate was taken out from incubator, […], of 10× compound was separately added to each well of the microplate, 2 duplicated wells were set for each concentration, 9 dosing concentrations were set for each compound. According to different cell lines, the initial concentration of each compound was different. Upon completion of addition, the microplate was placed at condition of 37° C., 5% CO2 for 72 hours. 3. Data acquisition: the microplate was taken out from the incubator and allowed to stand at room temperature to equilibrate for 30 minutes. 100 μl CellTiter-Glo® Luminescent Cell Viability Assay reaction solution which had been equilibrated at room temperature was added to each well and the microplate was shaken at 1300 rpm for 2 minutes at room temperature. The microplate was centrifuged at 2000 rpm for 1 minute in a HERAEUS Multifuge X1R and then allowed to equilibrate at room temperature for 10 minutes. The […] signal was measured on EnVision™.

EGFR kinase = EGFR kinase (Homo sapiens, UniProt P00533); assay: Enzymatic experiment on EGFR (HTRF kinEASE-TK); type: biochemical; conditions: ATP 1.65 μM; read-out: Kinase IC50 (nM) in vitro EGFR
Description: (§3) Enzymatic Experiment on EGFR/ErbB2
(§4) Firstly, preparing 1× reaction buffer required for the kinase, 5× Enzymatic buffer (HEPES 20 mM pH7.0, NaN3 0.1%, BSA 0.05%, sodium orthovanadate 0.5 mM) in the HTRF kinEASE-TK kit was diluted to 1 time with deionized water, 50 nM Supplement Enzymatic buffer (SEB reagent), 1 mM MnCl2, 5 mM MgCl2 and 1 mM DTT were added. Secondly, preparing 5× compound, 10 mM test compound stock solution was diluted in multiple steps with DMSO in a 96-well compound plate to prepare 100× compound as initial concentration, which was then used as the first concentration to perform a 3-fold gradient dilution with DMSO to obtain 10 concentrations. Afterwards, 1 μl gradient dilution was added to 19 μl 1× reaction buffer to prepare 5× compound for use. Then 2 μl 5× compound was transferred from the 96 well plate into a 384-well plate. To the compound-free control wells was added with 2 μl the following liquid: 19 μl 1× reaction buffer with addition of 1 μl DMSO. To the blank control wells was added 2 μl 250 mM EDTA. The third step was enzymatic reaction, the kinase, substrate (TK Substrate-biotin) and ATP were formulated into 2.5× enzyme/substrate mixture and 2.5×ATP solution using 1× reaction buffer respectively. The final concentration of ErbB2 kinase was 0.06 ng/μl, the final concentration of ATP was 4 μM; the final concentration of EGFR kinase was 0.06 units/μl, the final concentration of ATP was 1.65 μM; 4 μl 2.5× enzyme/substrate mixture was added to a 384-well plate, which was incubated at room temperature for 5 minutes; 4 μl 2.5×ATP solution was added to each well and the mixture was allowed to react for 30 minutes at room temperature. The fourth step was termination of the reaction, HTRF Detection buffer was used to prepare a mixture of 2×TK Antibody-Eu(K) and Sa-XL665, the amount of TK Antibody-Eu(K) was 5 μl per well. After the enzymatic reaction was performed for 30 minutes, 10 μl of the above liquid was added to the 384-well plate and the mixture was allowed to react at room temperature for 1 hour. The data was measured on EnVision™, the laser of 337 nm wavelength was selected as the excitation light, RFU665 nM and RFU620 nM were measured, and […]/RFU620 nM×10000 was used as the final data for analysis.

BT-474 = assay: Proliferation inhibition assay in vitro, BT-474 (CellTiter-Glo); type: cell-based; conditions: Homo sapiens, 72 hours, read-out: IC50(nM) cell BT-474
Description: as §1, §2

ErbB2 kinase = ErbB2 kinase (Homo sapiens, UniProt P04626); assay: Enzymatic experiment on ErbB2 (HTRF kinEASE-TK); type: biochemical; conditions: ATP 4 μM; read-out: Kinase IC50 (nM) in vitro ErbB2
Description: as §3, §4

Chain of EGFR kinase (P00533 25-1210): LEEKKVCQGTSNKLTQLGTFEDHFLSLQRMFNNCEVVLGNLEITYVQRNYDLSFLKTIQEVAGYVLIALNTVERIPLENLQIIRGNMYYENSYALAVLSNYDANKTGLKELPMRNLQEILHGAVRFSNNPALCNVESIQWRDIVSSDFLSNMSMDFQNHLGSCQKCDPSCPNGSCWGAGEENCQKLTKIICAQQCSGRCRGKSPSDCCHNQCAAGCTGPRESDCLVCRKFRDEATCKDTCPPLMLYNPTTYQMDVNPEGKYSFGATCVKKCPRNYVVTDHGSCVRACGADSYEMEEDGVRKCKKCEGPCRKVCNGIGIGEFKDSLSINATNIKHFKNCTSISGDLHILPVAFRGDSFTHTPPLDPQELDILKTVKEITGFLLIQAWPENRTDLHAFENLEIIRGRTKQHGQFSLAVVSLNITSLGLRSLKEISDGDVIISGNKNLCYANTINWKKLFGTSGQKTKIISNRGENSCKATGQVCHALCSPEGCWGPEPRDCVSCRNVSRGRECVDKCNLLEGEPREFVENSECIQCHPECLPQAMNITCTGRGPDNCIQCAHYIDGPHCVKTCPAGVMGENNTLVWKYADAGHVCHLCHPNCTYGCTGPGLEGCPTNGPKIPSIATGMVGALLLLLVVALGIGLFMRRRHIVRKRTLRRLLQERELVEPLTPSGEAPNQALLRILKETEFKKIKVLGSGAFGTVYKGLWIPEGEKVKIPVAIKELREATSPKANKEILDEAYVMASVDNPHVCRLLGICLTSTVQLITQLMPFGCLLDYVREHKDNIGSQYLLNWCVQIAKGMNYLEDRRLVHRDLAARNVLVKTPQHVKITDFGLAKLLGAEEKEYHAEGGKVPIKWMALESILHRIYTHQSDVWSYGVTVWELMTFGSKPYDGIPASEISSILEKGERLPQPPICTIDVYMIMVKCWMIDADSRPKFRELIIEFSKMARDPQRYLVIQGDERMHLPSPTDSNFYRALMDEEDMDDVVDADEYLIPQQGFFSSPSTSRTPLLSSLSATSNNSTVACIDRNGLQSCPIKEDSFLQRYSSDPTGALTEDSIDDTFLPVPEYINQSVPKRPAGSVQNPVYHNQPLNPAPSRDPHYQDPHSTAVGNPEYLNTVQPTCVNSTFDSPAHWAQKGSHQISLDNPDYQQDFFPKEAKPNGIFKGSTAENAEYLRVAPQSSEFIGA
Chain of ErbB2 kinase (P04626 23-1255): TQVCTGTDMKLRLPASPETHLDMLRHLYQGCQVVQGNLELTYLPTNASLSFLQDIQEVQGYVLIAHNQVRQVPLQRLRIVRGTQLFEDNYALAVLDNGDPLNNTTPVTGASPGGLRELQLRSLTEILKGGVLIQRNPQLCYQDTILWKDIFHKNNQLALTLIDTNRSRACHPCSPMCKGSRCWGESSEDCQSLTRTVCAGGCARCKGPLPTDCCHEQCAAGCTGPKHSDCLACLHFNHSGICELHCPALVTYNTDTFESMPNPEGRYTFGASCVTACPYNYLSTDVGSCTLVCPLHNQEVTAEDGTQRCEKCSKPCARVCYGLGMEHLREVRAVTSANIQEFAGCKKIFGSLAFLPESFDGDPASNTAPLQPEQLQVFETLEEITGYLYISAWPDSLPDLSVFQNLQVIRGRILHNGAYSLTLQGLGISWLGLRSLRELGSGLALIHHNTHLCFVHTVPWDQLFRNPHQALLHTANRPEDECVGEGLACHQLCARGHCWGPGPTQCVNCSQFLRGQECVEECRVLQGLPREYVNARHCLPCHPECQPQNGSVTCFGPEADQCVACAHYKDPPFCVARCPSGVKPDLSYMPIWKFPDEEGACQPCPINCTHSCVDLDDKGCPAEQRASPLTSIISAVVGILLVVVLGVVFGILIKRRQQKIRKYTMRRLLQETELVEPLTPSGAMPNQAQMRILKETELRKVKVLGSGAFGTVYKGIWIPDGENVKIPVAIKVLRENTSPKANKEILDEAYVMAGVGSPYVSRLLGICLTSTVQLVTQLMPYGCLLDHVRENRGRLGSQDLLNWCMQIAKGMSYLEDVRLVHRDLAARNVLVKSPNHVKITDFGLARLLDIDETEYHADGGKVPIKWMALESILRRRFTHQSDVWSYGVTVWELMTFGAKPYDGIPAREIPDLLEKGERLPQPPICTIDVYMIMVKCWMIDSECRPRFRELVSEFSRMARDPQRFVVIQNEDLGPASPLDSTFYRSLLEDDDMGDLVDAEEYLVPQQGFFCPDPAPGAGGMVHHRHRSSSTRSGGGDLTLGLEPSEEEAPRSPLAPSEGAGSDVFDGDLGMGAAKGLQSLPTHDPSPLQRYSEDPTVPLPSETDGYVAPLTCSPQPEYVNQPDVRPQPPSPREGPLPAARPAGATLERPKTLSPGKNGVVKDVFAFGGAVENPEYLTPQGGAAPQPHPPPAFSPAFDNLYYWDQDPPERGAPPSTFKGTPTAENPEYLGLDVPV

Row | IC50 (EGFR kinase) | IC50 (BT-474) | IC50 (ErbB2 kinase) | Structure (SMILES) | IC50 (N87)
1 | 22.1 nM | 98.2 nM | 3.3 nM | CC1(C)COC(Nc2ccc3ncnc(Nc4ccc(Oc5cc6nncn6cn5)c(F)c4)c3c2)=N1 [Embodiment 19, N^4-(4-([1,2,4]triazolo[4,3-c]pyrimidin-7-yloxy)-3-fluorophenyl)-N^6-(4,4-dimethyl-4,5-dihydrooxazol-2-yl)-quinazoline-4,6-diamine] | 125 nM
2 | 43.5 nM | 140 nM | 2.2 nM | Cc1cc(Nc2ncnc3ccc(-c4ccco4)cc23)ccc1Oc1cc2nncn2cn1 [Embodiment 21, N-(4-([1,2,4]triazolo[4,3-c]pyrimidin-7-yloxy)-3-methylphenyl)-6-(furan-2-yl)-quinazolin-4-amine] | 73.8 nM
3 | 18 nM | 40.7 nM | 4.1 nM | Cc1cc(Nc2ncnc3ccc(-c4ccc(CN5CCN(S(C)(=O)=O)CC5)o4)cc23)ccc1Oc1cc2nncn2cn1 [Embodiment 22, N-(4-([1,2,4]triazolo[4,3-c]pyrimidin-7-yloxy)-3-methylphenyl)-6-(5-((4-(methanesulfonyl)piperazin-1-yl)methyl)furan-2-yl)quinazolin-4-amine] | 35.6 nM
4 | 0.7 nM | 79.5 nM | 5.2 nM | COc1cc2ncnc(Nc3ccc(Oc4cc5nncn5cn4)c(C)c3)c2cc1OC1CCN(C(=O)/C=C/CN(C)C)CC1 [Embodiment 23] | 55.7 nM
5 | 127 nM | 128 nM | 4.1 nM | Cc1cc(Nc2ncnc3ccc(NC4=NCC(C)O4)cc23)ccc1Oc1cc2nncn2cn1 (stereo not shown) [Embodiment 24, N^4-(4-([1,2,4]triazolo[4,3-c]pyrimidin-7-yloxy)-3-methylphenyl)-N^6-(5-methyl-4,5-dihydrooxazol-2-yl)quinazoline-4,6-diamine] | 177 nM
6 | 499 nM | 984 nM | 53.3 nM | Cc1cc(Nc2ncnc3ccc(NC4=NCC5(CCN(C(=O)OC(C)(C)C)CC5)O4)cc23)ccc1Oc1cc2nncn2cn1 [Embodiment 25, tert-butyl 2-((4-((4-([1,2,4]triazolo[4,3-c]pyrimidin-7-yloxy)-3-methylphenyl)amino)quinazolin-6-yl)amino)-1-oxa-3,8-diazaspiro[4.5]dec-2-en-8-carboxylate] | 464 nM
7 | 96.8 nM | 122 nM | 3.8 nM | Cc1cc(Nc2ncnc3ccc(NC4=NC5(CO4)CN(C(=O)OC(C)(C)C)C5)cc23)ccc1Oc1cc2nncn2cn1 [Embodiment 26] | 130 nM
8 | 8.1 nM | 112 nM | 1.92 nM | Cc1cc(Nc2ncnc3ccc(NC4=NC5(CO4)CC(O)C5)cc23)ccc1Oc1cc2nncn2cn1 (stereo not shown) [Embodiment 27, 6-((4-((4-([1,2,4]triazolo[4,3-c]pyrimidin-7-yloxy)-3-methylphenyl)amino)quinazolin-6-yl)amino)-7-oxa-5-azaspiro[3,4]oct-5-en-2-ol] | 543 nM
9 | 17.3 nM | 141 nM | 4.9 nM | Cc1cc(Nc2ncnc3ccc(NC4=NC5(CO4)CN(C)C5)cc23)ccc1Oc1cc2nncn2cn1 [Embodiment 30, N^4-(4-([1,2,4]triazolo[4,3-c]pyrimidin-7-yloxy)-3-methylphenyl)-N^6-(2-methyl-7-oxa-2,5-diazaspiro[3.4]oct-5-en-6-yl)quinazoline-4,6-diamine] | 771 nM

Further lines, the compound ahead of its results:

Row | Structure (SMILES) | IC50 (EGFR kinase) | IC50 (BT-474) | IC50 (ErbB2 kinase) | IC50 (N87)
10 | Cc1cc(Nc2ncnc3ccc(NC4=N[C@H](C)CO4)cc23)ccc1Oc1cc2nncn2cn1 [Embodiment 7, (R)—N^4-(4-([1,2,4]triazolo[4,3-c]pyrimidin-7-yloxy)-3-methylphenyl)-N^6-(4-methyl-4,5-dihydrooxazol-2-yl)quinazoline-4,6-diamine] | 164 nM | 45 nM | 8.1 nM | 71 nM
11 | Cc1cc(Nc2ncnc3ccc(NC4=N[C@@H](C)CO4)cc23)ccc1Oc1cc2nncn2cn1 [Embodiment 8] | 115 nM | 43.4 nM | 7.8 nM | 68.7 nM
12 | Cc1cc(Nc2ncnc3ccc(NC4=NC(C)(C)CS4)cc23)ccc1Oc1cc2nncn2cn1 [Embodiment 9, N^4-(4-([1,2,4]triazolo[4,3-c]pyrimidin-7-yloxy)-3-methylphenyl)-N^6-(4,4-dimethyl-4,5-dihydrothiazol-2-yl)quinazoline-4,6-diamine] | 35.9 nM | 33.4 nM | 7.4 nM | 39.5 nM
13 | Cc1cc(Nc2ncnc3ccc(NC(=O)N4CCN(C)CC4)cc23)ccc1Oc1cc2nncn2cn1 [Embodiment 10, N-(4-((4-([1,2,4]triazolo[4,3-c]pyrimidin-7-yloxy)-3-methylphenyl)amino)quinazolin-6-yl)-4-methylpiperazine-1-carboxamide] | 143 nM | 92.3 nM | 12.6 nM | 200 nM
14 | Cc1cc(Nc2ncnc3ccc(NC(=S)NC(C)(CO)CO)cc23)ccc1Oc1cc2nncn2cn1 [Embodiment 12, 1-(4-((4-([1,2,4]triazolo[4,3-c]pyrimidin-7-yloxy)-3-methylphenyl)amino)quinazoline-6-yl)-3-(1,3-dihydroxy-2-methylpropan-2-yl)thiourea] | 231 nM | 136 nM | 4.3 nM | 482 nM
15 | Cc1cc(Nc2ncnc3ccc(NC4=NC(C)(CO)CO4)cc23)ccc1Oc1cc2nncn2cn1 (stereo not shown) [Embodiment 13, (2-((4-((4-([1,2,4]triazolo[4,3-c]pyrimidin-7-yloxy)-3-methylphenyl)amino)quinazolin-6-yl)amino)-4-methyl-4,5-dihydrooxazol-4-yl)methanol] | 15.2 nM | 47.9 nM | 2.6 nM | 204 nM
16 | COCC(=O)NC/C=C/c1ccc2ncnc(Nc3ccc(Oc4cc5nncn5cn4)c(C)c3)c2c1 [Embodiment 14, 2-methoxy-N-((E)-3-(4-(3-methyl-4-([1,2,4]triazolo[4,3-c]pyrimidin-7-yloxy)anilino)-6-quinazolinyl)allyl)acetamide] | 115 nM | 35.2 nM | 1.7 nM | 94.1 nM
17 | Cc1cc(Nc2ncnc3ccc(-c4ccc(CNCCS(C)(=O)=O)o4)cc23)ccc1Oc1cc2nncn2cn1 [Embodiment 15, N-(4-([1,2,4]triazolo[4,3-c]pyrimidin-7-yloxy)-3-methylphenyl)-6-(5-(((2-(methylsulfonyl)ethyl)amino)methyl)furan-2-yl)quinazolin-4-amine] | 14.9 nM | 17.4 nM | 1.2 nM | 33.2 nM
18 | C=C(F)C(=O)Nc1ccc2ncnc(Nc3ccc(Oc4cc5nncn5cn4)c(C)c3)c2c1 [Embodiment 16, N-(4-((4-([1,2,4]triazolo[4,3-c]pyrimidin-7-yloxy)-3-methylphenyl)amino)quinazolin-6-yl)-2-fluoroacrylamide] | 32.3 nM | 7.7 nM | 3.4 nM | 5.6 nM
19 | Cc1cc(Nc2ncnc3ccc(NC(=O)CC(C)(C)O)cc23)ccc1Oc1cc2nncn2cn1 [Embodiment 17, N-(4-((4-([1,2,4]triazolo[4,3,c]pyrimidin-7-yloxy)-3-methylphenyl)amino)quinoline-6-yl)-3-hydroxy-3-methylbutanamide] | 80.9 nM | 304 nM | 7.9 nM | 712 nM
